# Source: PMC3038857, “Using Nuclear Receptor Activity to Stratify Hepatocarcinogens” (PLoS ONE, 2011)
# Like-named read-outs stand apart in the source and are kept apart here.
# Columns and labels:
# [1] = target: T1, PPARD (peroxisome proliferator-activated receptor delta) (Homo sapiens, UniProt Q03181); assay: ATG_PPARd_TRANS: Factorial reporter gene assay (HepG2); format: cell-based; set-up: scale not given here; details: scale not given, looks like -log10 of molar active concentration, 0 = no activity
# T1 construct: expressed in transfected cells; host or cells: HepG2
# T1 sequence (Q03181 1-441): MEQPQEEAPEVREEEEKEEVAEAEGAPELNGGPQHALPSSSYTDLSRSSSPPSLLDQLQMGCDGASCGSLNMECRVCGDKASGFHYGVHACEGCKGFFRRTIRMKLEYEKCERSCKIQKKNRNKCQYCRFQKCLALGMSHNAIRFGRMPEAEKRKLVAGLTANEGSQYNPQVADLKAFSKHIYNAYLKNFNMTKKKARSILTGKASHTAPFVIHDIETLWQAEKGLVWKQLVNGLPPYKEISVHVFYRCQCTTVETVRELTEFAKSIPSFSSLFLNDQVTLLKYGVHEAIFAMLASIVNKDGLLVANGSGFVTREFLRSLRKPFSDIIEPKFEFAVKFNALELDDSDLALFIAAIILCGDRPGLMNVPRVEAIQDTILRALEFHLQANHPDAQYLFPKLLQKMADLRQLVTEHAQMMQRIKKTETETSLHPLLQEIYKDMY
# Method: (§1) A multiple reporter transcription unit (MRTU) library consisting of 48 transcription factor binding sites was transfected into the HepG2 human liver hepatoma cell line. In addition to the cis-acting reporter genes (CIS), a modification of the approach was used to generate a trans-system (TRANS) with a mammalian one-hybrid assay consisting of an additional 25 MRTU library reporting the activity of nuclear receptor super-family members. […] These assays were performed by Attagene Inc. (Morrisville NC) under contract to EPA.
# (§2) In addition to the cis-acting reporter genes (CIS), a modification of the approach was used to generate a trans-system (TRANS) with a mammalian one-hybrid assay consisting of an additional 25 MRTU library reporting the activity of nuclear receptor super-family members. […] Chemicals were then tested in the CIS and TRANS assays at seven concentrations starting at the MTC and followed by three-fold serial dilutions. These assays were performed by Attagene Inc. (Morrisville NC) under contract to EPA. Detailed description of the methods, data and analysis methods for this dataset will be presented in a separate publication.
# PPARg (PPARG) = target: T2, PPARg (PPARG) (Homo sapiens, UniProt P37231); assay: NCGC_PPARg_Agonist: GAL4 BLAM Reporter gene assay: PPARg; format: cell-based; set-up: expressed in transfected cells; host or cells: HEK293; details: agonist mode; scale not given, looks like -log10 of molar active concentration; 0 = no activity
# T2 sequence (P37231 1-505): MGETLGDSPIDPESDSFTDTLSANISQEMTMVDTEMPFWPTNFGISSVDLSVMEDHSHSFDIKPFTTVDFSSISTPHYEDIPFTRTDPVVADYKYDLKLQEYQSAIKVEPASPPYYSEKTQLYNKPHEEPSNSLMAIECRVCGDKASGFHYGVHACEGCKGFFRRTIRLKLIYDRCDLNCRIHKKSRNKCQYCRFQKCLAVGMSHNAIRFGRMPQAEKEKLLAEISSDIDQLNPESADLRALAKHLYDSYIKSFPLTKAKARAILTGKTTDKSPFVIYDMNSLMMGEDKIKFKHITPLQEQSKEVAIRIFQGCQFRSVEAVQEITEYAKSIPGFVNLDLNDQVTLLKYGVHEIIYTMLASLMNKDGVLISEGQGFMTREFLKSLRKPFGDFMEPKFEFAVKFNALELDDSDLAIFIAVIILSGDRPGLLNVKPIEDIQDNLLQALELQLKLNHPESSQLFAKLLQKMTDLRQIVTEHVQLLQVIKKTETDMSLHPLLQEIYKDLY
# Method: These assays measure binding constants and enzyme inhibition values for nuclear receptors. The targets include [drawing 67] , [drawing 68] , [drawing 69] , [drawing 70] , [drawing 71] , [drawing 72] , [drawing 73] , [drawing 74] , [drawing 75] and [drawing 76] . Each of the nuclear receptor targets was measured in agonist mode. Assays were run at the NIH Chemical Genomics Center (Rockville, MD).
# Cell-based HTS Assays: These assays measuring binding constants and enzyme inhibition values for nuclear receptors. The targets include AR, ER, FXR, LXR, PPARα, PPARδ, PPARγ, RXRα, RXRβ and PXR. Each of the nuclear receptor targets was measured in both agonist and antagonist mode, but the antagonist data is still undergoing analysis due to possible interference between cytotoxicity and assay activity, so antagonist mode data were not used in the present analysis. Assays were run at the NIH Chemical Genomics Center (Rockville, MD) as part of the Tox21 collaboration. […] The R^2 was required to be ≥0.5. Values where only the highest concentration exceeded 50% activity were excluded to eliminate weak or false positives. Detailed description of the methods, data and analysis methods for this dataset will be presented in a separate publication.
# Mouse Liver = details: ref ToxRefDB, cited from earlier work
# FXR (NR1H4) = target: T3, FXR (NR1H4) (Homo sapiens, UniProt Q96RI1); assay: ATG_FXR_TRANS: Factorial reporter gene assay (HepG2); format: cell-based; set-up: expressed in transfected cells; host or cells: HepG2; scale not given here; details: scale not given, looks like -log10 of molar active concentration, 0 = no activity
# T3 sequence (Q96RI1 1-486): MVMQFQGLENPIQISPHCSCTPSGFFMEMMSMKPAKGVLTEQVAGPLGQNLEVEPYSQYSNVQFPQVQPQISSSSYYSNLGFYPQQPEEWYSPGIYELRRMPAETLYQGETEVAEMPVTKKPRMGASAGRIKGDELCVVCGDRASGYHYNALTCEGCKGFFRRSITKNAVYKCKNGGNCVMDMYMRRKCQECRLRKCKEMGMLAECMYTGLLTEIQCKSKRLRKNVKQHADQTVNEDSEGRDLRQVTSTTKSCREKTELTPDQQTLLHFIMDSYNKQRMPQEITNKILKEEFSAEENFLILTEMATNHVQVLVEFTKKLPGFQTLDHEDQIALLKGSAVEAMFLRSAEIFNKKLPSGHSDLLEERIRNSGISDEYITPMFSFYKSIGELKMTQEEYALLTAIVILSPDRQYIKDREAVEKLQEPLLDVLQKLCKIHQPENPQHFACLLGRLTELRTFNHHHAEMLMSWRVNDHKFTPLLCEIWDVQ
# Method: as §1, §2
# [2] = mouse chronic study, liver, preneoplastic lesion, coded 6 / Inf / 0, code not explained here
Structure (SMILES),ATG_PPARd_TRANS [1],NCGC_PPARg_Agonist (PPARg (PPARG)),CHR_Mouse_Liver_2_PreneoplasticLesion (Mouse Liver; [2]),ATG_FXR_TRANS (FXR (NR1H4)),"CHR_Mouse_Liver_2_PreneoplasticLesion (Mouse Liver; chronic study, mouse liver)","CHR_Mouse_Liver_2_PreneoplasticLesion (Mouse Liver; mouse, chronic study)","CHR_Mouse_Liver_2_PreneoplasticLesion (Mouse Liver; chronic mouse study, liver)"
CC(C)N1C(=O)c2ccccc2NS1(=O)=O [r37],0,0,6,,,,
CCCCOCN(C(=O)CCl)c1c(CC)cccc1CC [r46],0,0,,0,,,
COC(=O)c1ccccc1CS(=O)(=O)NC(=O)Nc1nc(OC)cc(OC)n1 [r33],0,0,,0,,,
CNC(=O)Oc1cccc2ccccc12 [r52],0,,6,0,,,
Nc1cnn(-c2ccccc2)c(=O)c1Cl [r56],0,0,,,,,
CC(C)=CC1C(C(=O)OCc2coc(Cc3ccccc3)c2)C1(C)C (stereo not drawn) [r280],,,,,6,,
CC(C)(c1ccc(O)cc1)c1ccc(O)cc1 [r40],0,0,,,,,
CCCC1COC(Cn2cncn2)(c2ccc(Cl)cc2Cl)O1 (stereo not drawn) [r262],,,,,,6,
Cc1c(COC(=O)C2C(/C=C(\Cl)C(F)(F)F)C2(C)C)cccc1-c1ccccc1 (stereo not drawn) [r39],0,0,6,0,,,
CCC(C)n1c(=O)[nH]c(C)c(Br)c1=O (stereo not drawn) [r43],,0,6,0,,,
COc1cc(Cl)c(OC)cc1Cl [r57],,0,,,,,
COc1nc(C)nc(NC(=O)NS(=O)(=O)c2ccccc2Cl)n1 [r62],,0,,,,,
CCOC(=O)C(Cl)Cc1cc(-n2nc(C)n(C(F)F)c2=O)c(F)cc1Cl (stereo not drawn) [r54],0,0,,0,,,
COc1ccc(-c2ccccc2)cc1NNC(=O)OC(C)C [r38],,0,6,0,,,
N#Cc1cc(Br)c(O)c(Br)c1 [r44],0,0,6,0,,,
Cc1ccccc1CO[C@@H]1C[C@@]2(C(C)C)CC[C@]1(C)O2 [r64],0,0,6,,,,
COc1nc(C)nc(NC(=O)NS(=O)(=O)c2ccccc2Cl)n1 [r63],,0,,,,,
CC(C)Oc1cc(-n2nc(C(C)(C)C)oc2=O)c(Cl)cc1Cl [row 225],,,,,,,6
CC1=C(C(=O)Nc2ccccc2)SCCO1 [r53],0,0,,0,,,
CCC(C)Nc1c([N+](=O)[O-])cc(C(C)(C)C)cc1[N+](=O)[O-] (stereo not drawn) [r48],0,0,,,,,
CC(C)OC(=O)Nc1cccc(Cl)c1 [r59],0,0,6,0,,,
N#Cc1c(Cl)c(Cl)c(Cl)c(C#N)c1Cl [r58],0,0,,0,,,
C=CCOC(=O)C(C)(C)OC(=O)c1cc(-n2c(=O)cc(C(F)(F)F)n(C)c2=O)ccc1Cl [r47],0,0,6,,,,
CCSC(=O)N(CC(C)C)CC(C)C [r49],0,0,,,,,
CC(C)N1C(=O)N(c2ccccc2)CS/C1=N\C(C)(C)C [r45],0,0,6,,,,
O=C1C2CC=CCC2C(=O)N1SC(Cl)(Cl)Cl (stereo not drawn) [r51],0,0,,,,,
O=C(Nc1ccccc1-c1ccc(Cl)cc1)c1cccnc1Cl [r42],0,0,,,,,
OB(O)O [r41],0,0,,0,,,
